Laboratory results reported in patent publication US8148392B2, “2-indolyl imidazo [4,5-d] phenanthroline derivatives and their use in the treatment of cancer” (Lorus Therapeutics Inc., priority 2005, dated 2012).
“Also recorded” adds a separate entry of the source.

Columns and labels:
[1] = PAR metal binding assay, copper; assay type: physicochemical; conditions: pH 7.5, 200 μM PAR
Protocol: (§1) Results are shown in FIGS. 28A (ZnCl2), 28B (CuCl2) and 28C (FeCl2). In vitro 4-(2-pyridylazo) resorcinol (PAR) zinc binding assay was performed as follows. In triplicate wells of 96-well plate (Sarstedt, Newton, N.C.), 10 μL volume of indicated final concentrations of ZnCl2 in 0.2M Tris-HCl, pH 7.5 was incubated with 10 μL of 80% acetonitrile-20% DMSO vehicle control or indicated final concentrations of the compounds of Formula I, dissolved in 80% acetonitrile-20% DMSO, for 15 min at room temperature. Then, 80 μL of PAR at final concentration of 200 μM in 0.2M Tris-HCl, pH 7.5 was added and the color development of PAR-Zn^2+ complex was measured by a multi-well spectrophotometer (Bio-Tek Instruments Inc.) at 500 nm.
(§2) Metal chelation property of compound 64 and the relative affinity on different metal ions were evaluated and compared with the effect of compound 3 in vitro using 4-(2-pyridylazo) resorcinol (PAR) colorimetric zinc assay utilizing methodology as described above in the preceding Examples. Indicated final concentrations of ZnCl2 (FIG. 56A), CuCl2 (FIG. 56B) or FeCl2 (FIG. 56C) were incubated with 80% acetonitrile-20% DMSO vehicle control or 200 μM of the compounds of Formula I. The color development of PAR-metal ion complex was measured by a multi-well spectrophotometer at 500 nm.

[2] = test system: HT-29 cells; experiment: Cell cycle analysis by flow cytometry, HT-29; assay type: cell-based, human; conditions: HT-29, 24 hours
Protocol: To test the ability of compounds of Formula I to block cell cycle progression, compound 3 was incubated with human colon carcinoma HT-29 or human leukemia CCRF-CEM cells to determine alterations in populations of cells at different stages of the cell cycle using flow cytometric analysis. HT-29 cells were maintained as described in Example 13. CCRF-CEM cells used in this example and subsequent examples were maintained as suspension cells in a growth medium; RPMI-1640 medium (Sigma, St. Louis, Mo.), supplemented with 2 mM L-glutamine (Gibco, Grand Island, N.Y.), 10% fetal bovine serum (FBS) (Multicell, WISENT Inc. St-Bruno, QC), antibiotic-antimycotic (Multicell), at 37° C. in a 5% CO2-humidified incubator.
The assay was carried out as follows. For HT-29 cells, 1×10^6 cells in 10 mL volume of the growth medium were seeded in 100 mm dishes. For CCRF-CEM cells, 3×10^6 cells in 10 mL volume of the growth medium were seeded in 25 cm^2 flask. […] The fluorescence of stained cells was analyzed using FACScan flow cytometer and the Cell Quest program (BD Biosciences, San Jose, Calif.). Data were evaluated using Modfit software (Verity software House, Topsham, Me.). Values were determined by gate analysis of flow cytometric plots. […]
Cell cycle analysis was assessed by flow cytometry in HT-29 cells treated with compound 3 as shown in FIG. 27A and compound 7 as shown in FIG. 27B.

[3] = PAR metal binding assay, zinc; assay type: physicochemical; conditions: pH 7.5, 200 μM PAR
Protocol: as §1, §2

[4] = test system: MDA-MB-231 breast cancer cells; experiment: XTT cell proliferation assay, MDA-MB-231; assay type: cell-based, human; conditions: Homo sapiens, read-out: IC50 (cell growth inhibition)
Protocol: Cell growth inhibition IC50 (μM) by compounds of Formula I was tested on various cancer cell types by XTT cell proliferation assay. The growth inhibitory effects of the compounds of Formula I as shown below for the melanoma cell line SK-MEL-2 were reproducible by Lorus Therapeutics Inc.

[5] = test system: MTF-1; experiment: MTF-1 mRNA in HT-29 tumour xenografts, RT-PCR; assay type: in vivo, CD-1 athymic nude mice; conditions: HT-29 xenograft, versus vehicle
Protocol: Correlation between zinc-sensitive transcription factor MTF-1 and a cell cycle regulator Cyclin D1 expression in HT-29 colon cancer xenograft tissues is shown in FIG. 30. Based on the presence of putative MTF-1-binding DNA sequences in Cyclin D1 gene promoter region (shown in FIG. 30A), expression levels of MTF-1 and Cyclin D1 in xenograft tissues were examined by RT-PCR, using tissue RNA extract.
The tumor regression efficacy of compound 3 was assessed in compound 3-treated HT-29-transplanted athymic mice (FIG. 54A), and correlated with gene expressions of MTF-1, KLF4 and Cyclin D1 in HT-29 xenograft tissues (FIG. 54B). CD-1 athymic nude mice (4 per group) were injected subcutaneously with HT-29 cells (3×10^6 cells in 0.1 mL PBS). At 5 days after tumor cell inoculation, the mice were intra-peritoneally injected with 200 μL vehicle control or 100 mg/kg compound 3, for 5 days followed by 10 days interval, for 2 cycles (day 5 to 9 as a first cycle injection and day 20 to 24 as a second cycle injection). The tumor size was measured during the course of treatment using calipers (FIG. 54A). The mice were sacrificed at 34 days after tumor cell inoculation. The tumor tissues were excised, frozen immediately and stored at −80° C. until RNA extraction and gene expression was analyzed by RT-PCR (FIG. 54B). […]

| SMILES | Cu+2 binding to PAR (PAR-Cu2+ absorbance at 500 nm) [1] | cell cycle progression [2] | Zn binding to PAR (PAR-Zn2+ absorbance at 500 nm) [3] | IC50 [4] [µM] | MTF-1 expression in tumour xenografts ([5]; listed as compound 3) | MTF-1 expression in tumour xenografts [5] |
| --- | --- | --- | --- | --- | --- | --- |
| Cc1[nH]c2ccccc2c1-c1nc2c3cccnc3c3ncccc3c2[nH]1 [Compound 3] | attenuated; also recorded: eliminated | induced a block in cell cycle progression at the G1 phase; also recorded: Cell cycle arrest at G1/S phase was observed | attenuated; also recorded: eliminated | 5 | Decreased MTF-1 expression; also recorded: decrease in MTF-1 and Cyclin D1 gene expressions | – |
| Cc1[nH]c2ccc(F)cc2c1-c1nc2c3cccnc3c3ncccc3c2[nH]1 [Compound 7] | – | Cell cycle arrest at G1/S phase was observed | – | 5 | – | Decreased MTF-1 expression |
| CCc1cccc2c(-c3nc4c5cccnc5c5ncccc5c4[nH]3)c(C(C)(C)C)[nH]c12 [Compound 64] | eliminated | – | eliminated | – | – | – |
